Data: patent US11149031B2, “Substituted N-(3-fluoropropyl)-pyrrolidine compounds, processes for their preparation and therapeutic uses thereof” (SANOFI, priority 2016, dated 2021)
Where two headings read alike, the source gives them in different places.

Key:
[1] = system: MCF7 cells expressing mutant estrogen receptor Tyr 537 Ser; experiment: Test B: cell proliferation/viability assay (CellTiter-Glo) on MCF7 Tyr 537 Ser mutant; type: cell-based; details: MCF7 cells expressing ER Tyr 537 Ser mutant, 7 days of compound exposure, read-out: proliferation MCF7 Y537S IC50
In short: (§1)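 CellTiter-Glo luminescence after 7-day exposure; % viability = background-corrected RLU of sample relative to untreated. MCF7 WT or ER Tyr 537 Ser/Asp 538 Gly mutant-dependent lines, phenol red-free MEM, 5% charcoal-stripped FBS; 3-0.000001 μM, 9 points.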

[2] = biological target: ERα in MCF7 cells (Homo sapiens (Human), UniProt P03372); experiment: Test C: estrogen receptor degradation activity, ERα in cell western assay in MCF7 cells; type: cell-based; details: for DC50: 4 hours post compound addition, ERα in cell western, read-out: Degradation IC50; for % Degradation at 3 μM: 4 hours, relative to fulvestrant
ERα in MCF7 cells, sequence (P03372 whole entry): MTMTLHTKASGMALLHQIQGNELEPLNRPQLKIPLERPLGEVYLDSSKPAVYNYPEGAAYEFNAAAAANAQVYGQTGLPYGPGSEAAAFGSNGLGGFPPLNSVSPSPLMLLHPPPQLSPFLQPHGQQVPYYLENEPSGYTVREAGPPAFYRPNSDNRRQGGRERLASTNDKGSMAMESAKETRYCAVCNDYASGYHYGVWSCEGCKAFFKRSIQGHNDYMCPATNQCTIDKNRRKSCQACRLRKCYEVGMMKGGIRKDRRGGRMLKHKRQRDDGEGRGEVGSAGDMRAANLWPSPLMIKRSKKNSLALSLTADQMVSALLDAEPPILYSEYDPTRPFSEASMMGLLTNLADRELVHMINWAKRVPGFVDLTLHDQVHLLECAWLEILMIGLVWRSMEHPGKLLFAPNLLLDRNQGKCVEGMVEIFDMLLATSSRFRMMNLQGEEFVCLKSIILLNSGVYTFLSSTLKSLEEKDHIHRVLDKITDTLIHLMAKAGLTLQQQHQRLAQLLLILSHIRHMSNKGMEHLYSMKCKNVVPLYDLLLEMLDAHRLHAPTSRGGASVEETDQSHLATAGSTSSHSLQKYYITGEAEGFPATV
In short: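 In-cell western, MCF7, 4 h compound exposure, 3–0.000018 μM final, 9 points, 1:5 steps. Formalin/Triton fix, anti-ER rabbit mAb overnight cold, Alexa 488 secondary plus 2 μM Syto-64. Green intensity = ERα, red = DNA; no-primary wells as background.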

[3] = biological target: His6-ERα298-554 D538G mutant (ERα ligand-binding domain) (Homo sapiens (Human), UniProt P03372, D538G); experiment: Test A: biochemical antagonist activity, LanthaScreen TR-FRET ERα coactivator assay, D538G mutant; details: read-out: Antagonism D538G IC50
His6-ERα298-554 D538G mutant (ERα ligand-binding domain), sequence (P03372 298-554 D538G): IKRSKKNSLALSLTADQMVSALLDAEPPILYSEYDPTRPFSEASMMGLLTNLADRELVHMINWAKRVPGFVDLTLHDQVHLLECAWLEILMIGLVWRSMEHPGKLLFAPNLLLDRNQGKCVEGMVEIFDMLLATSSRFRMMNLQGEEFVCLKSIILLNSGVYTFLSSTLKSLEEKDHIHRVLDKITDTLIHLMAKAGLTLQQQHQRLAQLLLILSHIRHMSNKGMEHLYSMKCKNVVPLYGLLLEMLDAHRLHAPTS
In short: (§2)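 IC50 values come from a 4-parameter logistic fit of the 520:495 nm TR-FRET ratio after overnight room-temperature incubation. The mix held 0.5 nM ERα 298–554 LBD, Tb-labelled anti-His6 antibody, 250 nM PGC1a peptide and 3 nM or 10 nM estradiol, pH 7.4 phosphate buffer with DTT.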

[4] = system: MCF7 cells (breast tumor cells) WT; experiment: Test B: cell proliferation/viability assay (CellTiter-Glo) on MCF7 WT; type: cell-based; details: 7 days of compound exposure
In short: as §1

[5] = biological target: His6-ERα298-554 Y537S mutant (ERα ligand-binding domain) (Homo sapiens (Human), UniProt P03372, Y537S); experiment: Test A: biochemical antagonist activity, LanthaScreen TR-FRET ERα coactivator assay, Y537S mutant; details: read-out: Antagonism Y537S IC50
His6-ERα298-554 Y537S mutant (ERα ligand-binding domain), sequence (P03372 298-554 Y537S): as the sequence (P03372 298-554 D538G) above, with Y240S, G241D counted along it
In short: as §2

[6] = biological target: His6-ERα298-554 WT (ERα ligand-binding domain) (Homo sapiens (Human), UniProt P03372); experiment: Test A: biochemical antagonist activity, LanthaScreen TR-FRET ERα coactivator assay, WT; details: read-out: Antagonism WT IC50
His6-ERα298-554 WT (ERα ligand-binding domain), sequence (P03372 298-554): as the sequence (P03372 298-554 D538G) above, with G241D counted along it
In short: as §2

[7] = system: MCF7 cells expressing mutant estrogen receptor Asp 538 Gly; experiment: Test B: cell proliferation/viability assay (CellTiter-Glo) on MCF7 Asp 538 Gly mutant; type: cell-based; details: MCF7 cells expressing ER Asp 538 Gly mutant, 7 days of compound exposure, read-out: proliferation MCF7 D538G IC50
In short: as §1

[8] = asterisk (*): protocol using 10 nM estradiol

| SMILES | IC50 ([1]; Homo sapiens, MCF7, 168 h) | DC50 [2] | % Degradation at 3 μM [2] | IC50 [3, 8] | IC50 ([4]; Homo sapiens, MCF7, 168 h) | IC50 [5, 8] | IC50 [6, 8] | IC50 ([7]; Homo sapiens, MCF7, 168 h) | IC50 ([3]; protocol with 3 nM estradiol) | IC50 ([5]; protocol with 3 nM estradiol) | IC50 ([6]; protocol with 3 nM estradiol) | IC50 [1] | IC50 [4] | IC50 [7] |
| --- | --- | --- | --- | --- | --- | --- | --- | --- | --- | --- | --- | --- | --- | --- |
| [2H]C([2H])([2H])Oc1ccc(C2=C(c3ccc(O[C@H]4CCN(CCCF)C4)cc3)c3ccc(O)cc3SC2)c(F)c1 [Example 34, 4-[4-[(3S)-1-(3-fluoropropyl)pyrrolidin-3-yl]oxyphenyl]-3-[2-fluoro-4-(trideuteriomethoxy)phenyl]-2H-thiochromen-7-ol] | 4 nM | 0.4 nM | 85% | 83 nM | 0.5 nM | 46 nM | 4 nM | 0.5 nM | – | – | – | – | – | – |
| CCOc1cc(F)c(C2=C(c3ccc(O[C@H]4CCN(CCCF)C4)cc3)c3ccc(O)cc3SC2)cc1F [Example 40, 3-(4-ethoxy-2,5-difluoro-phenyl)-4-[4-[(3S)-1-(3-fluoropropyl)pyrrolidin-3-yl]oxyphenyl]-2H-thiochromen-7-ol] | 20 nM | 0.2 nM | 81% | 901 nM | 1 nM | 605 nM | 44 nM | 2 nM | – | – | – | – | – | – |
| CCOc1ccc(C2=C(c3ccc(O[C@H]4CCN(CCCF)C4)nc3)c3ccc(O)cc3SC2)c(F)n1 [Example 79, 3-(6-ethoxy-2-fluoro-3-pyridyl)-4-[6-[(3S)-1-(3-fluoropropyl)pyrrolidin-3-yl]oxy-3-pyridyl]-2H-thiochromen-7-ol] | 0.8 nM | 0.2 nM | 89% | 6 nM | 0.3 nM | 5 nM | 0.5 nM | 5 nM | – | – | – | – | – | – |
| Oc1ccc2c(c1F)CCCC(c1ccc(Cl)cc1Cl)=C2c1ccc(O[C@H]2CCN(CCCF)C2)nc1 [Example 245, 6-(2,4-dichlorophenyl)-1-fluoro-5-[6-[(3S)-1-(3-fluoropropyl)pyrrolidin-3-yl]oxy-3-pyridyl]-8,9-dihydro-7H-benzo[7]annulen-2-ol] | 3 nM | 0.5 nM | 87% | – | 0.3 nM | – | – | 0.1 nM | 4 nM | 3 nM | 0.4 nM | – | – | – |
| [O-][S+]1CCC(c2ccc(OC(F)(F)F)cc2)=C(c2ccc(O[C@H]3CCN(CCCF)C3)cc2)c2ccc(O)cc21 (single isomer, unassigned) [Example 226] | – | 103 nM | 93% | > 4000 nM | – | > 4000 nM | > 4000 nM | – | – | – | – | > 999 nM | 87 nM | 288 nM |
| Oc1ccc2c(c1F)OCCC(c1ccc3[nH]ccc3c1)=C2c1ccc(O[C@H]2CCN(CCCF)C2)cc1 [Example 113, 9-fluoro-5-[4-[(3S)-1-(3-fluoropropyl)pyrrolidin-3-yl]oxyphenyl]-4-(1H-indol-5-yl)-2,3-dihydro-1-benzoxepin-8-ol] | 31 nM | 0.7 nM | 80% | – | 5 nM | – | – | 14 nM | 32 nM | 19 nM | 6 nM | – | – | – |
| Cc1c(O)ccc2c1OCCC(c1ccc3cc[nH]c3c1)=C2c1ccc(O[C@H]2CCN(CCCF)C2)cc1 [Example 129, 5-[4-[(3S)-1-(3-fluoropropyl)pyrrolidin-3-yl]oxyphenyl]-4-(1H-indol-6-yl)-9-methyl-2,3-dihydro-1-benzoxepin-8-ol] | > 999 nM | 44 nM | 75% | – | 245 nM | – | – | 456 nM | > 4000 nM | 2680 nM | 502 nM | – | – | – |
| O=C(O)c1ccc2c(c1)CCCC(c1ccc(Cl)cc1Cl)=C2c1ccc(O[C@H]2CCN(CCCF)C2)nc1 [Example 247, 6-(2,4-dichlorophenyl)-5-[6-[(3S)-1-(3-fluoropropyl)pyrrolidin-3-yl]oxy-3-pyridyl]-8,9-dihydro-7H-benzo[7]annulene-2-carboxylic acid] | 6 nM | 0.2 nM | 93% | 136 nM | 0.2 nM | 72 nM | 5 nM | 0.4 nM | – | – | – | – | – | – |
